# In patent publication US6737383B1, “Herbicidal oxadiazolidines” (priority 1999, dated 2004):
# What was measured:
# bedstraw = experiment: Test B pre/postemergence bedstraw; format: in vivo, Galium aparine
# Outline: (§1)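 Test chemicals in a non-phytotoxic solvent mixture with surfactant were sprayed preemergence onto planted seeds and postemergence onto plants 2 to 18 cm tall (1- to 4-leaf stage). After twelve to sixteen days in a greenhouse, injury was visually rated against untreated controls from 0 (no effect) to 10 (complete control).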
# blackgrass = experiment: Test B pre/postemergence blackgrass; format: in vivo, Alopecurus myosuroides
# Outline: as §1
# surinam grass = experiment: Test B pre/postemergence surinam grass; format: in vivo, Brachiaria decumbens
# Outline: as §1
# cocklebur = experiment: Test B pre/postemergence cocklebur; format: in vivo, Xanthium strumarium
# Outline: as §1
# corn = experiment: Test B pre/postemergence corn; format: in vivo, Zea mays
# Outline: as §1
# crabgrass = experiment: Test B pre/postemergence crabgrass; format: in vivo, Digitaria sanguinalis
# Outline: as §1
# giant foxtail = experiment: Test B pre/postemergence giant foxtail; format: in vivo, Setaria faberii
# Outline: as §1
# morningglory = experiment: Test B pre/postemergence morningglory; format: in vivo, Ipomoea hederacea
# Outline: as §1
# pigweed = experiment: Test B pre/postemergence pigweed; format: in vivo, Amaranthus retroflexus
# Outline: as §1
# rape = experiment: Test B pre/postemergence rape; format: in vivo, Brassica napus
# Outline: as §1
# soybean = experiment: Test B pre/postemergence soybean; format: in vivo, Glycine max
# Outline: as §1
# sugar beet = experiment: Test B pre/postemergence sugar beet; format: in vivo, Beta vulgaris
# Outline: as §1
# velvetleaf = experiment: Test B pre/postemergence velvetleaf; format: in vivo, Abutilon theophrasti
# Outline: as §1
# wheat = experiment: Test B pre/postemergence wheat; format: in vivo, Triticum aestivum
# Outline: as §1
# wild oat = experiment: Test B pre/postemergence wild oat; format: in vivo, Avena fatua
# Outline: as §1
# purple nutsedge = experiment: Test B pre/postemergence purple nutsedge; format: in vivo, Cyperus rotundus
# Outline: as §1
# rice = experiment: Test B flood test rice; format: in vivo, Oryza sativa
# Outline: (§2)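 Flood test on plants grown to the 2-leaf stage; treated plants kept in greenhouse twelve to sixteen days, then visually rated against controls on a 0 (no effect) to 10 (complete control) scale.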
# smallflower flatsedge = experiment: Test B flood test smallflower flatsedge; format: in vivo, Cyperus difformis
# Outline: as §2
# duck salad = experiment: Test B flood test duck salad; format: in vivo, Heteranthera limosa
# Outline: as §2
# bamyardgrass = experiment: Test B flood test barnyardgrass; format: in vivo, Echinochloa crus-galli
# Outline: as §2
# [1] = Preemergence, Rate 62 g/ha, scale of 0 to 10 where 0 is no effect and 10 is complete control
# [2] = Preemergence, Rate 250 g/ha, scale of 0 to 10 where 0 is no effect and 10 is complete control
# [3] = Preemergence, Rate 500 g/ha, scale of 0 to 10 where 0 is no effect and 10 is complete control
# [4] = Rate 62 g/ha, Postemergence, scale of 0 to 10 where 0 is no effect and 10 is complete control
# [5] = Rate 125 g/ha, Postemergence, scale 0 to 10
# [6] = Rate 500 g/ha, Postemergence, scale 0 to 10, 0 no effect, 10 complete control
# [7] = Rate 125 g/ha, Preemergence, scale of 0 to 10 where 0 is no effect and 10 is complete control
# [8] = Rate 62 g/ha, headed Pre-emergence (flood test species), scale 0 to 10 (0 no effect, 10 complete control)
# [9] = Rate 125 g/ha, Pre-emergence, flood test species, scale 0 to 10 where 0 is no effect and 10 is complete control
# [10] = Rate 250 g/ha, Pre-emergence, flood-test species, scale 0 to 10, 0 is no effect, 10 is complete control
# [11] = Rate 500 g/ha, Pre-emergence, flood test species, scale 0 to 10 (0 no effect, 10 complete control)
compound,measurement,setting,value
C=CCn1c(=O)on(C(=O)N(c2ccc(F)cc2)C2CCCCCC2)c1=O [Compound 249],Bedstraw plant response rating,bedstraw; [1],0
same,Bedstraw plant response rating,bedstraw; [2],0
same,"Plant response rating, Bedstraw",bedstraw; [3],0
same,Bedstraw plant response rating,bedstraw; [4],0
same,Bedstraw plant response rating,bedstraw; [5],0
same,"Plant response rating (0 to 10; 0 is no effect, 10 is complete control), Bedstraw","bedstraw; Rate 250 g/ha, Postemergence",0
same,Bedstraw plant response rating,bedstraw; [6],0
same,Blackgrass plant response rating,blackgrass; [1],0
same,Blackgrass plant response rating,blackgrass; [2],0
same,"Plant response rating, Blackgrass",blackgrass; [3],0
same,Blackgrass plant response rating,blackgrass; [4],0
same,Blackgrass plant response rating,blackgrass; [5],0
same,Blackgrass plant response rating,blackgrass; [7],0
same,"Plant response rating (0 to 10; 0 is no effect, 10 is complete control), Blackgrass","blackgrass; Rate 250 g/ha, Postemergence",0
same,Blackgrass plant response rating,blackgrass; [6],0
same,B. signalgrass plant response rating,surinam grass; [1],0
same,B. signalgrass plant response rating,surinam grass; [2],0
same,"Plant response rating, B. signalgrass",surinam grass; [3],0
same,B. signalgrass plant response rating,surinam grass; [4],0
same,B. signalgrass plant response rating,"surinam grass; Rate 125 g/ha, Postemergence, scale 0 (no effect) to 10 (complete control)",0
same,B. signalgrass plant response rating,surinam grass; [7],0
same,"Plant response rating (0 to 10; 0 is no effect, 10 is complete control), B. signalgrass","surinam grass; Rate 250 g/ha, Postemergence",0
same,B. signalgrass plant response rating,surinam grass; [6],0
same,Cocklebur plant response rating,cocklebur; [1],0
same,Cocklebur plant response rating,cocklebur; [2],0
same,"Plant response rating, Cocklebur",cocklebur; [3],0
same,Cocklebur plant response rating,cocklebur; [4],0
same,Cocklebur plant response rating,cocklebur; [5],0
same,Cocklebur plant response rating,cocklebur; [7],0
same,"Plant response rating (0 to 10; 0 is no effect, 10 is complete control), Cocklebur","cocklebur; Rate 250 g/ha, Postemergence",0
same,Cocklebur plant response rating,cocklebur; [6],0
same,Corn plant response rating,corn; [1],0
same,Corn plant response rating,corn; [2],0
same,"Plant response rating, Corn",corn; [3],0
same,Corn plant response rating,corn; [4],0
same,Corn plant response rating,corn; [5],0
same,Corn plant response rating,corn; [7],0
same,"Plant response rating (0 to 10; 0 is no effect, 10 is complete control), Corn","corn; Rate 250 g/ha, Postemergence",0
same,Corn plant response rating,corn; [6],0
same,Crabgrass plant response rating,crabgrass; [1],0
same,Crabgrass plant response rating,crabgrass; [2],0
same,"Plant response rating, Crabgrass",crabgrass; [3],2
same,Crabgrass plant response rating,crabgrass; [7],0
same,"Plant response rating (0 to 10; 0 is no effect, 10 is complete control), Crabgrass","crabgrass; Rate 250 g/ha, Postemergence",0
same,Crabgrass plant response rating,crabgrass; [6],0
same,Giant foxtail plant response rating,giant foxtail; [1],0
same,Giant foxtail plant response rating,giant foxtail; [2],3
same,"Plant response rating, Giant foxtail",giant foxtail; [3],5
same,Giant foxtail plant response rating,giant foxtail; [7],0
same,"Plant response rating (0 to 10; 0 is no effect, 10 is complete control), Giant foxtail","giant foxtail; Rate 250 g/ha, Postemergence",0
same,Giant foxtail plant response rating,giant foxtail; [6],0
same,Morningglory plant response rating,morningglory; [1],0
same,Morningglory plant response rating,morningglory; [2],0
same,"Plant response rating, Morningglory",morningglory; [3],0
same,Morningglory plant response rating,morningglory; [7],0
same,"Plant response rating (0 to 10; 0 is no effect, 10 is complete control), Morningglory","morningglory; Rate 250 g/ha, Postemergence",0
same,Morningglory plant response rating,morningglory; [6],3
same,Redroot pigweed plant response rating,pigweed; [1],0
same,Redroot pigweed plant response rating,pigweed; [2],0
same,"Plant response rating, Redroot pigweed",pigweed; [3],0
same,Redroot pigweed plant response rating,pigweed; [7],0
same,"Plant response rating (0 to 10; 0 is no effect, 10 is complete control), Redroot pigweed","pigweed; Rate 250 g/ha, Postemergence",0
same,Redroot pigweed plant response rating,pigweed; [6],3
same,Rape plant response rating,rape; [1],0
same,Rape plant response rating,rape; [2],0
same,"Plant response rating, Rape",rape; [3],0
same,Rape plant response rating,rape; [7],0
same,"Plant response rating (0 to 10; 0 is no effect, 10 is complete control), Rape","rape; Rate 250 g/ha, Postemergence",0
same,Rape plant response rating,rape; [6],0
same,Soybean plant response rating,soybean; [1],0
same,Soybean plant response rating,soybean; [2],0
same,"Plant response rating, Soybean",soybean; [3],0
same,Soybean plant response rating,soybean; [7],0
same,Soybean plant response rating,soybean; [6],4
same,Sugarbeets plant response rating,sugar beet; [1],0
same,Sugarbeets plant response rating,sugar beet; [2],0
same,"Plant response rating, Sugarbeets",sugar beet; [3],0
same,Sugarbeets plant response rating,sugar beet; [7],0
same,Sugarbeets plant response rating,sugar beet; [6],2
same,Velvetleaf plant response rating,velvetleaf; [1],0
same,Velvetleaf plant response rating,velvetleaf; [2],0
same,"Plant response rating, Velvetleaf",velvetleaf; [3],0
same,Velvetleaf plant response rating,velvetleaf; [7],0
same,Velvetleaf plant response rating,velvetleaf; [6],0
same,Wheat plant response rating,wheat; [1],0
same,Wheat plant response rating,wheat; [2],0
same,"Plant response rating, Wheat",wheat; [3],0
same,Wheat plant response rating,wheat; [7],0
same,Wheat plant response rating,wheat; [6],0
same,Wild oats plant response rating,wild oat; [1],0
same,Wild oats plant response rating,wild oat; [2],0
same,"Plant response rating, Wild oats",wild oat; [3],0
same,Wild oats plant response rating,wild oat; [7],0
same,Wild oats plant response rating,wild oat; [6],0
same,Nutsedge plant response rating,purple nutsedge; [1],0
same,Nutsedge plant response rating,purple nutsedge; [2],0
same,"Plant response rating, Nutsedge",purple nutsedge; [3],0
same,Nutsedge plant response rating,purple nutsedge; [7],0
same,"Plant response rating (0 to 10; 0 is no effect, 10 is complete control), Nutsedge","purple nutsedge; Rate 250 g/ha, Postemergence",0
same,Nutsedge plant response rating,purple nutsedge; [6],0
same,Rice plant response rating,rice; [8],0
same,Rice plant response rating,rice; [9],0
same,Rice plant response rating,rice; [10],0
same,Rice plant response rating,rice; [11],0
same,S. Flatsedge plant response rating,smallflower flatsedge; [8],0
same,S. Flatsedge plant response rating,smallflower flatsedge; [9],0
same,S. Flatsedge plant response rating,smallflower flatsedge; [10],0
same,S. Flatsedge plant response rating,smallflower flatsedge; [11],0
same,Ducksalad plant response rating,duck salad; [8],0
same,Ducksalad plant response rating,duck salad; [9],0
same,Ducksalad plant response rating,duck salad; [10],0
same,Ducksalad plant response rating,duck salad; [11],0
same,Barnyardgrass plant response rating,bamyardgrass; [8],0
same,Barnyardgrass plant response rating,bamyardgrass; [9],0
same,Barnyardgrass plant response rating,bamyardgrass; [10],0
same,Barnyardgrass plant response rating,bamyardgrass; [11],0
